{"source": "paper PMC9324262", "about": "“Selective CDK9 Inhibition by Natural Compound Toyocamycin in Cancer Cells” (Cancers, 2022)", "key": {"histone 3 and histone 4": {"tested_on": "histone 3 and histone 4", "assay": "histone acetylation by mass spectrometry", "assay_type": "cell-based, human", "settings": "eleven lysine residues, YB5 cells", "protocol": "As described previously, histone proteins were acid-extracted (0.2 N HCl) for 16 h. Histone acetylation levels were quantified on histone 3 and histone 4 by a Thermo TSQ Quantum Access triple quadrupole (QqQ) mass spectrometer (Thermofisher Scientific, Waltham, MA, USA)."}, "[1]": {"assay": "cell viability by Viacount, YB5", "assay_type": "cell-based", "settings": "human, YB5 colon cancer cells; 24 and 72 h, 50 nM to 50 µM, highest doses; read-out: cell viability relative to untreated cells", "protocol": "Cell viability was measured in YB5 and HCT166 cells using Viacount (Luminex, Austin, TX, USA, 4000-0040) on a Guava flow cytometer (Millipore, Burlington, MA, USA). Colon cancer cells were grown in 96-well plates in the same conditions as in the drug screen and treated with toyocamycin and known CDK9 inhibitor BAY1251152 (Selleckchem, Houston, TX, USA). Cell culture media of each well was collected to harvest floating dead cells and kept aside for later. Cells were trypsinized (0.25% trypsin, Gibco, Waltham, MA, USA) for 5 min at 37 °C. Cell culture media of each well was added back to their corresponding wells to stop trypsinization and mixed thoroughly to obtain a single cell suspension. Viacount solution (Luminex, Austin, TX, USA, 4000-0040, 25 μL) was added to each well, and incubated (5 min at room temperature, in the dark) prior to cell viability analysis on the Guava flow cytometer."}}, "data": [{"smiles": "N#Cc1cn([C@@H]2O[C@H](CO)[C@@H](O)[C@H]2O)c2ncnc(N)c12", "note": "[toyocamycin, 7-Deaza-7-cyanoadenosine]", "values": [{"measurement": "histone 3 and 4 lysine acetylation levels", "setting": "histone 3 and histone 4", "value": "did not modify lysine acetylation levels"}, {"measurement": "viability", "setting": "[1]", "value": "> 50", "unit": "%"}]}]}
